In patent publication US20230226062A1, “HETEROCYCLIC COMPOUNDS AS IMMUNOMODULATORS” (Incyte Corporation, priority 2016, published 2023):
pIC50: −log10 of the molar value.

Target: T1, PD-1/PD-L1 (Homo sapiens, UniProt Q9NZQ7)
T1 construct: Recombinant human PD-L1 protein (19-238) with a His-tag at the C-terminus; purchased AcroBiosystems PD1-H5229 (PD-L1); PD1-H5257 (PD-1)
Test: PD-1/PD-L1 Homogeneous Time-Resolved Fluorescence (HTRF) binding assay
Conditions: recombinant human PD-L1 (19-238)-His 10 nM, human PD-1 (25-167)-Fc 3 nM, 25° C., PBS pH 7.4
Protocol: Example A. PD-1/PD-L1 Homogeneous Time-Resolved Fluorescence (HTRF) Binding Assay
The assays were conducted in a standard black 384-well polystyrene plate with a final volume of 20 μL. Inhibitors were first serially diluted in DMSO and then added to the plate wells before the addition of other reaction components. The final concentration of DMSO in the assay was 1%. The assays were carried out at 25° C. in the PBS buffer (pH 7.4) with 0.05% Tween-20 and 0.1% BSA. Recombinant human PD-L1 protein (19-238) with a His-tag at the C-terminus was purchased from AcroBiosystems (PD1-H5229). Recombinant human PD-1 protein (25-167) with Fc tag at the C-terminus was also purchased from AcroBiosystems (PD1-H5257). PD-L1 and PD-1 proteins were diluted in the assay buffer and 10 μL was added to the plate well. Plates were centrifuged and proteins were preincubated with inhibitors for 40 minutes. The incubation was followed by the addition of 10 μL of HTRF detection buffer supplemented with Europium cryptate-labeled anti-human IgG (PerkinElmer-AD0212) specific for Fc and anti-His antibody conjugated to SureLight®-Allophycocyanin (APC, PerkinElmer-AD0059H). After centrifugation, the plate was incubated at 25° C. for 60 min. before reading on a PHERAstar FS plate reader (665 nm/620 nm ratio). Final concentrations in the assay were—3 nM PD1, 10 nM PD-L1, 1 nM europium anti-human IgG and 20 nM anti-His-Allophycocyanin. IC50 determination was performed by fitting the curve of percent control activity versus the log of the inhibitor concentration using the GraphPad Prism 5.0 software.

T1 sequence (Q9NZQ7 19-238): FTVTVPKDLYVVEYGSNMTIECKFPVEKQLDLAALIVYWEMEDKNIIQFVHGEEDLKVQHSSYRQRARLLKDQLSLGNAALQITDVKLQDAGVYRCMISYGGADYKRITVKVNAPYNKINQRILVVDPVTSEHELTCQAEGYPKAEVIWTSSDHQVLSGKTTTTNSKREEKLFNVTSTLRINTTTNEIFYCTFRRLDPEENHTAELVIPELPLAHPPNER

SMILES | pIC50
COc1cccc(-c2cccc(Nc3nccc(CNCCO)c3F)c2Cl)c1F [Example 3, 2-((2-(2-chloro-2′-fluoro-3′-methoxybiphenyl-3-ylamino)-3-fluoropyridin-4-yl)methylamino)ethanol] | ≥ 8.00
Cc1c(-c2ccccc2)cccc1N1CCC2(CCCC(=O)N2)CC1 [Example 30, 9-(2-methylbiphenyl-3-yl)-1,9-diazaspiro[5.5]undecan-2-one] | 6.00 to 7.00
